{
  "source": "patent US6653333B2",
  "about": "“Remedies or preventives for digestive diseases containing diaminotrifluoromethylpyridine derivatives” (Ishihara Sangyo Kaisha, Ltd., priority 2000, dated 2003)",
  "key": {"[1]": {"system": "rat sodium dextran sulfate (DSS) induced ulcerative colitis model", "assay": "rat sodium dextran sulfate (DSS) induced ulcerative colitis model", "assay_type": "in vivo", "settings": "DSS rats", "from_the_text": "As an ulcerative colitis model, trinitrobenzenesulfonic acid (TNB) is usually used, but as a drug effect evaluation system to accomplish the present invention, a rat sodium dextran sulfate (DSS) induced ulcerative colitis model was used. It has been well known that said model is considered as an experimental model similar to human ulcerative colitis from many viewpoints such as inhibision of weight gain, presence or absence of bloody stool, symptoms of e.g. anemia and formation of erosion at the large intestine, and no formation of lesion in the small intestine [FOLIA PHARMACOLOGICA JAPONICA vol. 105, p. 145-152(1995)]. A therapeutic effect of N-(2-ethylsulfonylamino-5-trifluoromethyl-3-pyridyl)cyclohexanecarboxamide sodium salt monohydrate (hereinafter referred to as compound 1) over the test system was examined.\nThe compound 1 was used as a drug formulation. The formulation composition (content per one vial) was as follows.\nA 3% aqueous solution of sodium dextran sulfate (DSS: manufactured by Wako Pure Chemical Industries, Ltd.) was put in a drinking bottle, and rats [Crj: CD(SD), male, Charles River Japan, 7 weeks old when subjected to the test] were made to drink the solution freely for 11 days to cause colitis. After eleven days, rats which satisfied selection standards (among rats which discharged bloody stool continuously for at least two days including the selection day, ones having a weight loss at the selection day of less than 20 g as compared with the weight on the previous day and having a hemoglobin concentration of at least 12 g/dl) were selected, and divided into groups (ten rats/group) so that there would be no difference in the average weight among groups.\nWith respect to a non-treated group and groups treated with the compound 1, the 3% aqueous solution was changed to a 1% DSS aqueous solution at the day of division, and the rats were made to drink the solution freely for 14 days. Further, to the rats in the groups treated with the compound 1, the compound 1 was perorally administered once a day for 14 days from the day of division by means of a peroral sonde (dosage: 10 ml/kg). To the rats in the non-treated group and a normal group, distilled water for injection (manufactured by Otsuka Pharmaceutical Co., Ltd.) alone was perorally administered similarly. Here, the normal group rats were made to drink distilled water for injection freely instead of the DSS aqueous solution from initiation of the test to the day of anatomy.\nA 10 mg/ml aqueous solution of the compound 1 was prepared by using distilled water for injection (manufactured by Otsuka Pharmaceutical Co., Ltd.) and administered to the rats in a desired dosage.\nImmediately after collection of blood, the large intestine (colon and rectum) was excised, and its length was measured by means of a ruler in a sufficiently relaxed state.\nImmediately after the measurement, a fixing liquid was injected into the intestine, and the intestine was temporarily fixed for at least 1 hour in such a state that the lumen was approximately uniformly expanded. Then, the intestinal canal was dissected along the mesenterium adhered portion, and the intestine was completely fixed in an expanded state in a 10% neutral buffering formalin aqueous solution for at least one week. The intestine was washed with running water for about 5 minutes, and further washed with purified water three times, and then immersed in a 3% aqueous acetic acid solution for about 5 minutes as a pretreatment. Then, the intestine was immersed in a 1% Alcian blue (manufactured by Nacalai Tesque) (dissolved in a 3% aqueous acetic acid solution) and dyed for about 20 minutes, and then washed with a 3% aqueous acetic acid solution from 4 to 5 times until elution of Alcian blue disappeared. […]"}, "[2]": {"system": "TNBS induced rat Crohn's disease model", "assay": "Trinitrobenzene Sulfonic Acid (TNBS) induced rat Crohn's disease model", "assay_type": "in vivo", "settings": "TNBS rats", "experimental": "The therapeutic effect of the compound 1 on TNBS induced rat Crohn's disease model was studied by the following method.\n(1) SD male rats (12 weeks old) were anesthetized with Nembutal and their abdomen was opened up, a TNBS solution (TNBS 160 mg/ml ethanol) was administered in 1 ml/kg in the colon located 10 cm below the ileocecum, and their abdomen was closed to prepare models, which were divided into a non-treated group and a group treated with the compound 1, each group consisting of 6 rats. No such a treatment was carried out for normal group rats. After preparation of the models, a drug formulation of the compound 1 of Test Example 1 diluted with distilled water was perorally administered to rats of the group treated with the compound 1 once a day for 7 days in a dosage of 10 mg/kg/day as calculated as anhydride of the compound 1. After completion of administration period, visual change, small intestine weight and mucosal myeloperoxidase activity in small intestine (mucosal MPO activity) were observed or measured. The visual change was evaluated by digitizing and compiling various changes. The ratio of the small intestine weight to the body weight was also calculated from the small intestine weight and the body weight."}},
  "data": [
    {"smiles": "CCS(=O)(=O)Nc1ncc(C(F)(F)F)cc1NC(=O)C1CCCCC1.O.[Na]", "note": "[compound 1, N-(2-ethylsulfonylamino-5-trifluoromethyl-3-pyridyl)cyclohexanecarboxamide sodium salt monohydrate]", "values": [
      {"measurement": "Erosion suppression rate (large intestine erosion area vs non-treated group)", "setting": "[1]; 1 mg/kg/day perorally once a day for 14 days", "result": 45, "unit": "%"},
      {"measurement": "Erosion suppression rate (large intestine erosion area vs non-treated group)", "setting": "[1]; 10 mg/kg/day perorally once a day for 14 days", "result": 56, "unit": "%"},
      {"measurement": "Erosion suppression rate (large intestine erosion area vs non-treated group)", "setting": "[1]; 100 mg/kg/day perorally once a day for 14 days", "result": 62, "unit": "%"},
      {"measurement": "Anemia as a result of melena due to the erosion", "setting": "[1]; peroral 14 days", "result": "decreases anemia"},
      {"measurement": "Histopathological study: inflammation at the submucosa in the erosion formed region", "setting": "[1]; peroral 14 days", "result": "remarkable decrease of inflammation at the submucosa"},
      {"measurement": "Histopathological study: mucosal tissue reconstruction", "setting": "[1]; peroral 14 days", "result": "normal tissue reconstruction by regeneration of the mucosa took place"},
      {"measurement": "Length of large intestine: intestine wall hyperplasia", "setting": "[1]; peroral 14 days", "result": "decreases intestine wall hyperplasia"},
      {"measurement": "Inflammatory reaction and tissue impairment in the small intestine", "setting": "[2]; 10 mg/kg/day perorally for 7 days", "result": "the inflammatory reaction and tissue impairment in the small intestine were decreased"},
      {"measurement": "Ratio of small intestine to body weight (Mean)", "setting": "[2]; 10 mg/kg/day perorally once a day for 7 days, non-treated 0.0065, normal 0.0030", "result": 0.0042},
      {"measurement": "Small intestine weight (Mean)", "setting": "[2]; 10 mg/kg/day perorally once a day for 7 days, non-treated 2.18, normal 1.11", "result": 1.63},
      {"measurement": "Visual score (Mean)", "setting": "[2]; 10 mg/kg/day perorally once a day for 7 days, non-treated 7.8, normal 1.5", "result": 4.2},
      {"measurement": "Mucosal MPO activity (Mean)", "setting": "[2]; 10 mg/kg/day perorally once a day for 7 days, non-treated 8.93, normal 0.48", "result": 0.89}
    ]}
  ]
}
